Results on 18 molecules are retold here after US9388148B2, “Acylaminocycloalkyl compounds suitable for treating disorders that respond to modulation of dopamine D3 receptor” (AbbVie Deutschland GmbH & Co. KG, priority 2013, dated 2016).

For data set [1], the target named is T1, human dopamine D2L receptors (long isoform) (Homo sapiens, UniProt P14416).
T1 construct: expressed in transfected cells; host or cells: HEK-293
The data set is described as follows: Dopamine D2L receptor binding ([125I]iodospiperone displacement). The settings on record: selectivity ratio, human D2L vs human D3 binding. As for the experimental part: The substance to be tested was either dissolved in methanol/Chremophor® (BASF SE) or in dimethyl sulfoxide and then diluted with water to the desired concentration.
Each assay mixture was run in triplicate. • The incubation buffer contained 50 mM tris, 120 mM NaCl, 5 mM KCl, 2 mM CaCl2, 2 mM MgCl2 and 0.1% bovine serum albumin, 10 μM quinolone and 0.1% ascorbic acid (prepared fresh daily). […] Each assay mixture was run in triplicate. • The incubation buffer contained 50 mM tris, 120 mM NaCl, 5 mM KCl, 2 mM CaCl2, 2 mM MgCl2 and 0.1% bovine serum albumin. The buffer was adjusted to pH 7.4 with HCl. c) Measurement and analysis: • After having been incubated at 25° C. for 60 minutes, the assay mixtures were filtered through a Whatman GF/B glass fiber filter under vacuum using a cell col-lecting device. The filters were transferred to scintillation viols using a filter transfer system. After 4 ml of Ultima Gold® (Packard) have been added, the samples were shaken for one hour and the radioactivity was then counted in a Beta-Counter (Packard, Tricarb 2000 or 2200CA).

Data set [2] in a line: Determination of the microsomal half-life / microsomal clearance. The format is in vitro ADME. The settings on record: pH 7.4; human liver microsomes, 0.5 μM test substance, 0.25 mg protein/ml, NADPH, 37° C.; read-out: Human mCl (mikrosomal clearance). As for the experimental part: The metabolic stability of the compounds of the invention was determined in the following assay.
The test substances were incubated in a concentration of 0.5 μM as follows:
0.5 μM test substance are preincubated together with liver microsomes from different species (from rat, human or other species) (0.25 mg of microsomal protein/ml) in 0.05 M potassium phosphate buffer of pH 7.4 in microtiter plates at 37° C. for 5 min. The reaction is started by adding NADPH (1 mg/mL). After 0, 5, 10, 15, 20 and 30 min, 50 μl aliquots are removed, and the reaction is immediately stopped and cooled with the same volume of acetonitrile. The samples are frozen until analyzed. The remaining concentration of undegraded test substance is determined by MSMS. The half-life (T1/2) is determined from the gradient of the signal of test substance/unit time plot, it being possible to calculate the half-life of the test substance, assuming first order kinetics, from the decrease in the concentration of the compound with time. The microsomal clearance (mC1) is calculated from mC1=1n2/T1/2/(content of microsomal protein in mg/ml)×1000 [ml/min/mg] (modified from references: Di, The Society for Biomoleculur Screening, 2003, 453-462; Obach, DMD, 1999 vol 27. N 11, 1350-1359).
(In general: Liver microsomes are a subcellular fraction often used to study metabolism.)

T1 sequence (P14416 whole entry, canonical isoform): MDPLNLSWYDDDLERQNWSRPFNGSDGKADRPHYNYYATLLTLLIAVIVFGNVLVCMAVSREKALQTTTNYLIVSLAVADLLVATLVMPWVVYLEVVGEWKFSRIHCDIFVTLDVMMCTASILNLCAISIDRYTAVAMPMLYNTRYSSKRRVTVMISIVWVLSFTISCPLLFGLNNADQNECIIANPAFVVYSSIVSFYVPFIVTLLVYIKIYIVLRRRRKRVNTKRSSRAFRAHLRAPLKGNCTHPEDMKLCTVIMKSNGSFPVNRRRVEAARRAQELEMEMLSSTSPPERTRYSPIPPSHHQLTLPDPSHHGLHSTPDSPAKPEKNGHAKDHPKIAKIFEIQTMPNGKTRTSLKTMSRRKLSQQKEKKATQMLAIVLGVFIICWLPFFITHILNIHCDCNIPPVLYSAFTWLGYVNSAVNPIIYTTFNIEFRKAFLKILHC

As to `CC(C)(C)c1nc(C2CCC2)cc(N2CCN(CC[C@H]3CC[C@@H](NC(=O)[C@H]4CC[C@@H](O)CC4)CC3)CC2)n1.O=C(O)C(F)(F)F` [Compound 15, Cis-N-[cis-4-[2-[4-(2-tert-butyl-6-cyclobutyl-pyrimidin-4-yl)piperazin-1-yl]ethyl]cyclohexyl]-4-hydroxy-cyclohexanecarboxamide; 2,2,2-trifluoroacetic acid], the “D2/D3, Ki (D2L)/Ki (D3)” value in data set [1] is given as “+++ (+++ >50)”. The microsomal CLint at 0.5 μM in data set [2] was over 120 µL/min/mg.
In the same order, the values of `CC(C)(C)c1nc(C2CCC2)cc(N2CCN(CC[C@H]3C[C@H](NC(=O)[C@H]4CC[C@@H](O)CC4)C3)CC2)n1.O=C(O)C(F)(F)F` [Compound 16, Cis-N-[trans-3-[2-[4-(2-tert-butyl-6-cyclobutyl-pyrimidin-4-yl)piperazin-1-yl]ethyl]cyclobutyl]-4-hydroxy-cyclohexanecarboxamide; 2,2,2-trifluoroacetic acid] are “++ (++ >20)” and over 120 µL/min/mg.
Taken in the same sequence, the figures for `COCCc1cc(N2CCN(CC[C@H]3CC[C@H](NC(=O)[C@H]4C[C@@H](O)C4)CC3)CC2)nc(C(C)(C)C)n1` [Compound 18, cis-N-[trans-4-[2-[4-[2-tert-butyl-6-(2-methoxyethyl)pyrimidin-4-yl]piperazin-1-yl]ethyl]cyclohexyl]-3-hydroxy-cyclobutanecarboxamide] were “+++ (+++ >50)” and 20 to 120 µL/min/mg.
Taken in the same sequence, the figures for `CC(C)(C)c1cc(N2CCN(CC[C@H]3CC[C@H](NC(=O)[C@H]4CC[C@H](O)CC4)CC3)CC2)nc(C(C)(C)C)n1` [Compound 20, trans-N-[trans-4-[2-[4-(2,6-ditert-butylpyrimidin-4-yl)piperazin-1-yl]ethyl]cyclohexyl]-4-hydroxy-cyclohexanecarboxamide] were “++ (++ >20)” and 20 to 120 µL/min/mg.
On to `CC(C)(C)c1nc(N2CCN(CC[C@H]3CC[C@H](NC(=O)[C@H]4CC[C@H](O)CC4)CC3)CC2)cc(C(F)(F)F)n1` [Compound 21, trans-N-[trans-4-[2-[4-[2-tert-butyl-6-(trifluoromethyl)pyrimidin-4-yl]piperazin-1-yl]ethyl]cyclohexyl]-4-hydroxy-cyclohexanecarboxamide], for which the “D2/D3, Ki (D2L)/Ki (D3)” value in data set [1] is “++ (++ >20)”. Further, the microsomal CLint at 0.5 μM in data set [2] fell in the range of 20 to 120 µL/min/mg.
Taken in the same sequence, the figures for `CC(C)(C)c1cc(N2CCN(CC[C@H]3CC[C@@H](NC(=O)[C@H]4CC[C@H](O)CC4)CC3)CC2)nc(C(C)(C)C)n1` [Compound 22, trans-N-[cis-4-[2-[4-(2,6-ditert-butylpyrimidin-4-yl)piperazin-1-yl]ethyl]cyclohexyl]-4-hydroxy-cyclohexanecarboxamide] were “+++ (+++ >50)” and 20 to 120 µL/min/mg.
`CC(C)(C)c1nc(N2CCN(CC[C@H]3CC[C@@H](NC(=O)[C@H]4CC[C@H](O)CC4)CC3)CC2)cc(C(F)(F)F)n1` [Compound 23, Trans-N-[cis-4-[2-[4-[2-tert-butyl-6-(trifluoromethyl)pyrimidin-4-yl]piperazin-1-yl]ethyl]cyclohexyl]-4-hydroxy-cyclohexanecarboxamide]: in data set [1], the “D2/D3, Ki (D2L)/Ki (D3)” value is “+++ (+++ >50)”. Also, the microsomal CLint at 0.5 μM in data set [2] was in the range of 20 to 120 µL/min/mg.
For the molecule `COCCc1cc(N2CCN(CC[C@H]3CC[C@H](NC(=O)[C@H]4CC[C@H](OC)CC4)CC3)CC2)nc(C(C)(C)C)n1` [Compound 24, trans-N-[trans-4-[2-[4-[2-tert-butyl-6-(2-methoxyethyl)pyrimidin-4-yl]piperazin-1-yl]ethyl]cyclohexyl]-4-methoxy-cyclohexanecarboxamide], the “D2/D3, Ki (D2L)/Ki (D3)” value in data set [1] is reported as “++ (++ >20)”. Also, the microsomal CLint at 0.5 μM in data set [2] is over 120 µL/min/mg.
Taken in the same sequence, the figures for `CC(C)(C)c1nc(N2CCN(CCC3CCC(NC(=O)C4CCC(O)CC4)CC3)CC2)cc(C2(C)CC2)n1` (stereo not drawn) [Compound 27, N-[4-[2-[4-[2-tert-butyl-6-(1-methylcyclopropyl)pyrimidin-4-yl]piperazin-1-yl]ethyl]cyclohexyl]-4-hydroxy-cyclohexanecarboxamide] were “++ (++ >20)” and 20 to 120 µL/min/mg.
On to `CC(C)(C)c1nc(N2CCN(CC[C@H]3CC[C@@H](NC(=O)[C@H]4CC[C@H](O)CC4)CC3)CC2)cc(C2(C)CC2)n1` [Compound 28, Trans-N-[cis-4-[2-[4-[2-tert-butyl-6-(1-methylcyclopropyl)pyrimidin-4-yl]piperazin-1-yl]ethyl]cyclohexyl]-4-hydroxy-cyclohexanecarboxamide], for which the “D2/D3, Ki (D2L)/Ki (D3)” value in data set [1] is “++ (++ >20)”. In data set [2], the microsomal CLint at 0.5 μM was in the range of 20 to 120 µL/min/mg.
Taken in the same sequence, the figures for `CC(C)(C)c1nc(C(F)F)cc(N2CCN(CCC3CCC(NC(=O)C4CCC(O)CC4)CC3)CC2)n1` (stereo not drawn) [Compound 29, N-[4-[2-[4-[2-tert-butyl-6-(difluoromethyl)pyrimidin-4-yl]piperazin-1-yl]ethyl]cyclohexyl]-4-hydroxy-cyclohexanecarboxamide] were “+ (+ >10)” and 20 to 120 µL/min/mg.
Taken in the same sequence, the figures for `CC(C)(C)c1nc(C(F)F)cc(N2CCN(CC[C@H]3CC[C@@H](NC(=O)[C@H]4CC[C@H](O)CC4)CC3)CC2)n1` [Compound 30, Trans-N-[cis-4-[2-[4-[2-tert-butyl-6-(difluoromethyl)pyrimidin-4-yl]piperazin-1-yl]ethyl]cyclohexyl]-4-hydroxy-cyclohexanecarboxamide] were “++ (++ >20)” and 20 to 120 µL/min/mg.
Regarding `CC(C)c1cc(N2CCN(CCC3CCC(NC(=O)C4CCC(O)CC4)CC3)CC2)nc(C(C)(C)C)n1` (stereo not drawn) [Compound 31, N-[4-[2-[4-(2-tert-butyl-6-isopropyl-pyrimidin-4-yl)piperazin-1-yl]ethyl]cyclohexyl]-4-hydroxy-cyclohexanecarboxamide], in data set [1], the “D2/D3, Ki (D2L)/Ki (D3)” value was “++ (++ >20)”. Also, in data set [2], the microsomal CLint at 0.5 μM lay within 20 to 120 µL/min/mg.
In the same order, the values of `CC(C)c1cc(N2CCN(CC[C@H]3CC[C@H](NC(=O)[C@H]4CC[C@H](O)CC4)CC3)CC2)nc(C(C)(C)C)n1` [Compound 32, Trans-N-[trans-4-[2-[4-(2-tert-butyl-6-isopropyl-pyrimidin-4-yl)piperazin-1-yl]ethyl]cyclohexyl]-4-hydroxy-cyclohexanecarboxamide] are “++ (++ >20)” and 20 to 120 µL/min/mg.
In the same order, the values of `COCCc1cc(N2CCN(CCC3CCC(NC(=O)C4CCC(O)CC4)CC3)C[C@H]2C)nc(C(C)(C)C)n1` (stereo partly drawn) [Compound 33, N-[4-[2-[(3R)-4-[2-tert-butyl-6-(2-methoxyethyl)pyrimidin-4-yl]-3-methyl-piperazin-1-yl]ethyl]cyclohexyl]-4-hydroxy-cyclohexanecarboxamide] are “+++ (+++ >50)” and 20 to 120 µL/min/mg.
With `COCCc1cc(N2CCN(CC[C@H]3CC[C@H](NC(=O)[C@H]4CC[C@H](O)CC4)CC3)C[C@H]2C)nc(C(C)(C)C)n1` [Compound 34, trans-N-[trans-4-[2-[(3R)-4-[2-tert-butyl-6-(2-methoxyethyl)pyrimidin-4-yl]-3-methyl-piperazin-1-yl]ethyl]cyclohexyl]-4-hydroxy-cyclohexanecarboxamide], the “D2/D3, Ki (D2L)/Ki (D3)” value in data set [1] was “+++ (+++ >50)”. Also, the microsomal CLint at 0.5 μM in data set [2] lay within 20 to 120 µL/min/mg.
As to `CC(C)(C)c1nc(C2CCCC2)cc(N2CCN(CC[C@H]3CC[C@H](NC(=O)[C@H]4CC[C@H](O)CC4)CC3)CC2)n1` [Compound 35, trans-N-[trans-4-[2-[4-(2-tert-butyl-6-cyclopentyl-pyrimidin-4-yl)piperazin-1-yl]ethyl]cyclohexyl]-4-hydroxy-cyclohexanecarboxamide], the “D2/D3, Ki (D2L)/Ki (D3)” value in data set [1] is on record as “+ (+ >10)”. Besides, the microsomal CLint at 0.5 μM in data set [2] lay in the range of 20 to 120 µL/min/mg.
As to `CC(C)(C)c1nc(C2CCCC2)cc(N2CCN(CC[C@H]3CC[C@@H](NC(=O)[C@H]4CC[C@H](O)CC4)CC3)CC2)n1` [Compound 36, trans-N-[cis-4-[2-[4-(2-tert-butyl-6-cyclopentyl-pyrimidin-4-yl)piperazin-1-yl]ethyl]cyclohexyl]-4-hydroxy-cyclohexanecarboxamide], the “D2/D3, Ki (D2L)/Ki (D3)” value in data set [1] is “+++ (+++ >50)”. The microsomal CLint at 0.5 μM in data set [2] was 20 to 120 µL/min/mg.
